Reference: publication PMC4450297, “Screening Active Compounds from Garcinia Species Native to China Reveals Novel Compounds Targeting the STAT/JAK Signaling Pathway” (BioMed Research International, 2015)

What was measured:
Assay in all cases: Cell panel screen (CellTiter-Glo)
Format in all cases: cell-based, human
[1] = test system: A498; settings: A498 (listed under Lung), 20 micromolar, 72 hrs
Outline: (§1)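 Single-dose 20 μM (final), 72 h exposure; DMSO vehicle controls. Luminescence after 10-min reagent incubation → % growth inhibition = (untreated − treated)/(untreated − no-cell background) × 100.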

[2] = test system: A704; settings: A704 (Kidney), 20 micromolar, 72 hrs
Outline: as §1

[3] = test system: BT-474; settings: BT-474 (Breast), 20 micromolar, 72 hrs
Outline: as §1

[4] = test system: BT-549; settings: BT-549 (Breast), 20 micromolar, 72 hrs
Outline: as §1

[5] = test system: Bel-7402; settings: Bel-7402 (Liver), 20 micromolar, 72 hrs
Outline: as §1

[6] = test system: C3A; settings: C3A (Liver), 20 micromolar, 72 hrs
Outline: as §1

[7] = test system: C8166; settings: C8166 (Leukemia), 20 micromolar, 72 hrs
Outline: as §1

[8] = test system: CCF-STTG1; settings: CCF-STTG1 (Brain), 20 micromolar, 72 hrs
Outline: as §1

[9] = test system: CW-2; settings: CW-2 (Colon), 20 micromolar, 72 hrs
Outline: as §1

[10] = test system: ChaGo-K-1; settings: ChaGo-K-1 (Lung), 20 micromolar, 72 hrs
Outline: as §1

[11] = test system: Colo 205; settings: Colo 205, 20 micromolar, 72 hrs
Outline: as §1

[12] = test system: HCC1395; settings: HCC1395 (Breast), 20 micromolar, 72 hrs
Outline: as §1

[13] = test system: HCC1569; settings: HCC1569 (Breast), 20 micromolar, 72 hrs
Outline: as §1

[14] = test system: HCC1599; settings: HCC1599 (Breast), 20 micromolar, 72 hrs
Outline: as §1

[15] = test system: HCC1937; settings: HCC1937 (Breast), 20 micromolar, 72 hrs
Outline: as §1

[16] = test system: HEC-1-A; settings: HEC-1-A (Uterus), 20 micromolar, 72 hrs
Outline: as §1

[17] = test system: HGC-27; settings: HGC-27 (Stomach), 20 micromolar, 72 hrs
Outline: as §1

[18] = test system: HPAF-II; settings: HPAF-II (Pancreas), 20 micromolar, 72 hrs
Outline: as §1

[19] = test system: HT-1197; settings: HT-1197 (Urinary bladder), 20 micromolar, 72 hrs
Outline: as §1

[20] = test system: J82; settings: J82 (Urinary bladder), 20 micromolar, 72 hrs
Outline: as §1

[21] = test system: M059J; settings: M059J (Brain), 20 micromolar, 72 hrs
Outline: as §1

[22] = test system: MSTO-211-H; settings: MSTO-211-H (Lung), 20 micromolar, 72 hrs
Outline: as §1

[23] = test system: NCI-H1623; settings: NCI-H1623 (Lung), 20 micromolar, 72 hrs
Outline: as §1

[24] = test system: NCI-H1694; settings: NCI-H1694 (Lung), 20 micromolar, 72 hrs
Outline: as §1

[25] = test system: NCI-H1770; settings: NCI-H1770 (Lung), 20 micromolar, 72 hrs
Outline: as §1

[26] = test system: NCI-H2347; settings: NCI-H2347 (Lung), 20 micromolar, 72 hrs
Outline: as §1

[27] = test system: NCI-H2405; settings: NCI-H2405 (Lung), 20 micromolar, 72 hrs
Outline: as §1

[28] = test system: NCI-H28; settings: NCI-H28 (Lung), 20 micromolar, 72 hrs
Outline: as §1

[29] = test system: NCI-H524; settings: NCI-H524 (Lung), 20 micromolar, 72 hrs
Outline: as §1

[30] = test system: Panc 03.27; settings: Panc 03.27 (Pancreas), 20 micromolar, 72 hrs
Outline: as §1

[31] = test system: RL95; settings: RL95 (Uterus), 20 micromolar, 72 hrs
Outline: as §1

[32] = test system: SW13; settings: SW13 (Adrenal gland), 20 micromolar, 72 hrs
Outline: as §1

[33] = test system: T47D; settings: T47D (Breast), 20 micromolar, 72 hrs
Outline: as §1

[34] = test system: T98G; settings: T98G (Brain), 20 micromolar, 72 hrs
Outline: as §1

[35] = test system: TCCSUP; settings: TCCSUP (Urinary bladder), 20 micromolar, 72 hrs
Outline: as §1

[36] = test system: ZR-75-30; settings: ZR-75-30 (Breast), 20 micromolar, 72 hrs
Outline: as §1

SMILES	Percent Inhibition [1]	Percent Inhibition [2]	Percent Inhibition [3]	Percent Inhibition [4]	Percent Inhibition [5]	Percent Inhibition [6]	Percent Inhibition [7]	Percent Inhibition [8]	Percent Inhibition [9]	Percent Inhibition [10]	Percent Inhibition [11]	Percent Inhibition [12]	Percent Inhibition [13]	Percent Inhibition [14]	Percent Inhibition [15]	Percent Inhibition [16]	Percent Inhibition [17]	Percent Inhibition [18]	Percent Inhibition [19]	Percent Inhibition [20]	also measured
CC(C)=CCc1c2c(c(O)c3c1O[C@]14C(=C[C@@H]5C[C@H]1C(C)(C)O[C@@]4(C/C=C(\C)CO)C5=O)C3=O)C=CC(C)(C)O2 [GB18]	93%	99%	99%	99%	99%	99%	99%	99%	99%	99%	99%	99%	99%	99%	98%	99%	99%	99%	99%	99%	Percent Inhibition [21]: 99%; Percent Inhibition [22]: 99%; Percent Inhibition [23]: 99%; Percent Inhibition [24]: 99%; Percent Inhibition [25]: 99%; Percent Inhibition [26]: 97%; Percent Inhibition [27]: 99%; Percent Inhibition [28]: 98%; Percent Inhibition [29]: 100%; Percent Inhibition [30]: 99%; Percent Inhibition [31]: 99%; Percent Inhibition [32]: 99%; Percent Inhibition [33]: 99%; Percent Inhibition [34]: 99%; Percent Inhibition [35]: 99%; Percent Inhibition [36]: 99%
CC(C)=CCCC1(C)C=Cc2c(O)c3c(c(CC=C(C)C)c2O1)OC12C(=CC4CC1C(C)(C)OC2(CC=C(C)C(=O)O)C4=O)C3=O (mixture of isomers) [GB8]	99%	99%	99%	100%	99%	99%	100%	99%	99%	99%	99%	99%	100%	100%	100%	100%	100%	99%	99%	99%	Percent Inhibition [21]: 100%; Percent Inhibition [22]: 100%; Percent Inhibition [23]: 99%; Percent Inhibition [24]: 100%; Percent Inhibition [25]: 100%; Percent Inhibition [26]: 99%; Percent Inhibition [27]: 99%; Percent Inhibition [28]: 99%; Percent Inhibition [29]: 98%; Percent Inhibition [30]: 99%; Percent Inhibition [31]: 100%; Percent Inhibition [32]: 99%; Percent Inhibition [33]: 100%; Percent Inhibition [34]: 100%; Percent Inhibition [35]: 100%; Percent Inhibition [36]: 99%
COc1c(CC=C(C)C)cc2c(=O)c3c(O)cc(O)cc3oc2c1OC [gl-6]	47%	27%	25%	14%	27%	41%	41%	45%	51%	59%	43%	44%	34%	42%	32%	40%	55%	36%	36%	52%	Percent Inhibition [21]: 44%; Percent Inhibition [22]: 16%; Percent Inhibition [23]: 14%; Percent Inhibition [24]: 46%; Percent Inhibition [25]: 23%; Percent Inhibition [26]: 22%; Percent Inhibition [27]: 25%; Percent Inhibition [28]: 39%; Percent Inhibition [29]: 9%; Percent Inhibition [30]: 45%; Percent Inhibition [31]: 46%; Percent Inhibition [32]: 18%; Percent Inhibition [33]: 31%; Percent Inhibition [34]: 31%; Percent Inhibition [35]: 36%; Percent Inhibition [36]: 90%
